Results from US7432051B2, “Erythropoietin and erythropoietin receptor expression in human cancer” (The Henry M. Jackson Foundation for the Advancement of …, priority 2000, dated 2008).

Assays:
U251 cells [1] = experiment: Chemotherapeutic drug toxicity, cell survival by MTT assay; type: cell-based, human; settings: serum-free media
Experimental: (§1) U251 cells were grown in 96-well culture dishes to approximately 85% confluence. Serum was withdrawn overnight and 10 μM Cisplatin was added for twenty-four hours. […] Control groups underwent similar serum withdrawal but no Cisplatin exposure. Where indicated rhEpo or Epoetin-alfa was added thirty minutes prior to the addition of cisplatin. Serum withdrawal studies involved assessment of cell survival forty-eight hours following change to serum-free media. […] Where indicated, Epoetin-alfa, tyrosine kinase inhibitors or PI3K inhibitors were added at the time of change to serum-free media. The Student's T-test was used to determine statistically significant differences between treatment groups.

U251 cells [2] = experiment: Hypoxia-sensing response (HIF-1α immunoblot, HIF-1 gelshift, RT-PCR and Western blot for Epo/EpoR); type: cell-based, human; settings: 150 μM DFX, six-hour treatment
Experimental: Human glioma cell lines (ATCC) and normal human astrocytes (Clonetics) were cultured in Eagle's MEM medium supplemented with 10% fetal bovine serum, and 1% (v/v) penicillin/streptomycin. The cells were grown to 90% confluence in 10 cm culture dishes. For hypoxia treatment, the culture dishes were sealed in modulator incubator chamber, flushed with gas containing 1% oxygen, 5% carbon dioxide, 94% nitrogen for five minutes, and incubated at 37° C. for four to six hours. For desferrioxamine (DFX) treatment, the cells were cultured with same medium containing […] DFX and incubated in cell culture incubator. Paraffin sections (5 μm) of the human GBMs were prepared and stained by immunohistochemistry methods as described previously (Acs et al. (2001) Cancer Res. 61, 3561-3565).
(§2) After the treatments to the cell culture dishes described in Example 10, the cells were washed once with 10 ml cold Dulbecco's phosphate-buffered saline (PBS), scraped into 1.5 ml of PBS on ice, and pelleted by centrifugation at 2,000 rpm for three minutes at 4° C. Cell pellets were washed once with 5 packed cell volumes of buffer A (10 mM Tris-HCl (pH 7.5), 1.5 mM magnesium chloride, 10 mM KCl), freshly supplemented with Complete, EDTA-free Protease Inhibitor Cocktail (Roche) and 2 mM dithiothreitol (DTT)), and resuspended in four packed cell volumes of buffer A. After incubation on ice for 10 min, cell suspension was homogenized with thirty strokes in a glass douncer (Wheaton) with type-b pestle. Nuclei were pelleted at 1,000 rpm for ten minutes and resuspended in four packed nuclear volumes of buffer C (20 mM Tris-HCl (pH 7.5), 0.42 M KCl, 1.5 mM magnesium chloride, 20% glycerol, freshly supplemented with Complete, EDTA-free Protease Inhibitor Cocktail (Roche) and 2 mM DTT), and rotated for thirty minutes at 4° C. After centrifugation at 1,400 rpm for thirty minutes, the nuclear extracts were aliquoted and stored at −80° C. Protein concentration was determined by the method of Bradford with a commercial kit (Bio-Rad) using bovine serum albumin as standard. HIF-1α protein was detected by immunoblot analysis. Twenty five to thirty μg of nuclear extracts were boiled for five minutes in 2× denaturing buffer, and loaded onto SDS-7% polyacrylamide gels. After transfer, membranes were blocked with 5% milk in TBST (10 mM Tris-HCl, 150 mM NaCl, 0.1% Tween, pH 7.8) for one and a half hours at room temperature and subsequently incubated with mouse monoclonal HIF-1α antibody (Transduction Labs) for two hours. The membranes were washed with TBST three times and incubated with horseradish peroxidase-conjugated secondary antibody. Then, the membranes were washed three times with TBST and analyzed by enhanced chemiluminescence (Pierce). Analysis of EpoR and phosphotyrosine immunoreactivity was performed as reported previously (Acs et al. (2001) Cancer Res. 61, 3561-3565).
Oligonucleotide probe was generated by 5′ end labeling of the sense strand with gamma-[^32P]ATP (Dupont-NEN) and T4 polynucleotide kinase (Gibco-BRL), annealing to a ten-fold excess of antisense strand, and purification by using NucTrap Probe Purification Column (Stratagene). Binding reactions were carried out in a total volume of 20 μl containing 7.0 μg of nuclear extract and 0.2 μg of calf thymus DNA in buffer Z (20 mM Tris-HCl (pH 7.5), 0.1 M KCl, 0.2 mM EDTA, 20% glycerol, freshly supplemented with 2 mM DTT, 0.4 mM PMSF and 1 mM Na3PO4). […]

U251 cells [3] = experiment: Serum withdrawal cell survival; type: cell-based, human; settings: inhibitor added at change to serum-free media, forty-eight hours
Experimental: as §1

BT-549 cells = experiment: 3H-thymidine incorporation assay of DNA synthesis; type: cell-based, human
Experimental: (§3) To determine whether Epo exerts trophic effects on breast cancer cell lines, the effect of exogenously added Epo on DNA synthesis was examined in MCF-7 and BT-549 cells. DNA synthesis was measured using a ^3H-thymidine incorporation assay. Breast cancer cells plated in six well plates in one ml DMEM supplemented with 20% fetal bovine serum per well were allowed to incubate for sixteen hours. Cells were switched to one ml phenol-free DMEM at the time of treatments. recombinant human Epo (rhEpo) (10 units), or either anti-Epo or anti-EpoR antibodies ([…]) was then added directly to the medium and the cells cultured for another sixteen hours. Thymidine labeling was performed by adding one […] (NEN Life Sciences) for one hour and DNA associated counts were then determined by liquid scintillation as described (Assandri et al. (1999) J. Physiol. 516, 343-352).

MCF-7 cells [4] = experiment: 3H-thymidine incorporation assay of DNA synthesis; type: cell-based, human
Experimental: as §3

MCF-7 cells [5] = experiment: Western blot of phosphotyrosine containing proteins; type: cell-based, human; settings: five minute incubation; 250 units/ml rhEpo or 10 μM Epo mimetic peptide
U251 cells [6] = experiment: Western blot of EpoR associated signaling (tyrosine phosphorylation, Jak-2, STAT-5, Akt); type: cell-based, human
Experimental: as §2
Using the Western blotting techniques described in Example 11 above, the immunoreactive EpoR expressed in human gliomas was further tested to see if it was functional. Cultured U251 cells were stimulated with recombinant human erythropoietin. […] Tyrosine phosphorylation could also be elicited by an Epo-mimetic peptide (EMP) and by Epoetin-alfa, the clinically used form of Epo (FIG. 11B). Using phospho-specific antibodies, we also detected rhEpo stimulated Jak-2 and STAT-5 tyrosine phosphorylation as well as phosphorylation of Akt (FIG. 12C).

[7] = test system: cell lines derived from a wide range of tumors including two breast cancer cell lines; settings: in particular low doses of erythropoietin; cited from earlier work
[8] = 10 units/ml exogenous rhEpo, p<0.01
[9] = rhEpo (10 units) in one ml medium, sixteen hours, p<0.01

Compound: N.N.[Cl][Pt][Cl] [Cisplatin, reference compound]
- cells killed (cell death) (U251 cells [1]; 10 μM Cisplatin, overnight / twenty-four hours): approximately 80%
- survival fraction (U251 cells [1]; Cisplatin overnight): 0.2

Compound: CC(=O)N(O)CCCCCNC(=O)CCC(=O)N(O)CCCCCNC(=O)CCC(=O)N(O)CCCCCN [DFX, desferrioximine]
- Epo mRNA expression (RT-PCR) (U251 cells [2]): prominent induction
- EpoR mRNA expression (RT-PCR) (U251 cells [2]): not induced
- HIF-1 gelshift activity (U251 cells [2]): dramatically upregulating
- immunoreactive EpoR protein levels (U251 cells [2]): enhanced
- level of HIF-1α protein (U251 cells [2]): dramatically upregulating

Compound: O=c1c(-c2ccc(O)cc2)coc2cc(O)cc(O)c12 [Genistein, reference compound]
- effect on the protective effect of Epoetin-alfa (U251 cells [3]): blocked

Compound: rhEpo: recombinant human Epo (rhEpo), R & D systems
- enhancement of 3H-thymidine incorporation (BT-549 cells; [8]): about 25%
- 3H-thymidine incorporation, effect in words (BT-549 cells; rhEpo 100 units/ml (FIG. 2)): enhanced
- potentiation of DNA synthesis (BT-549 cells; [9]): approximately 20%
- enhancement of 3H-thymidine incorporation (MCF-7 cells [4]; [8]): about 25%
- 3H-thymidine incorporation, effect in words (MCF-7 cells [4]; rhEpo 100 units/ml (FIG. 2)): enhanced
- potentiation of DNA synthesis (MCF-7 cells [4]; [9]): approximately 20%
- levels of phosphotyrosine containing proteins versus basal (MCF-7 cells [5]): markedly enhanced
- Jak-2 tyrosine phosphorylation (U251 cells [6]; phospho-specific antibodies): stimulated
- STAT-5 tyrosine phosphorylation (U251 cells [6]; phospho-specific antibodies): stimulated
- phosphorylation of the PI3K substrate Akt (U251 cells [6]; phospho-specific antibodies): stimulated
- tyrosine phosphorylation in several proteins (U251 cells [6]; serum free media, rhEpo 10 U/ml single dose, EMP and Epoetin-alfa thirty minute treatments): prominent, rapid, and long lasting activation
- duration of tyrosine phosphorylation (U251 cells [6]; single dose 10 U/ml rhEpo): more than two hours
- onset of tyrosine phosphorylation (U251 cells [6]; single dose 10 U/ml rhEpo): within one minute
- stimulation of cancer cell proliferation [7]: no significant stimulation
